Assay results from ChEMBL document CHEMBL4725376, “Identification of the first noncompetitive SARM1 inhibitors” (Bioorg Med Chem, 2020).
Counter-ions that a name gives are not always drawn.

How the values were obtained:
Format in all cases: subcellular
[1] = biological target: T1, NAD(+) hydrolase SARM1 (Homo sapiens) (UniProt Q6SZW1); assay: Inhibition of recombinant human SARM1 TIR domain (561 to 724 residues) expressed in Escherichia coli C43 (DE3) cells lysates using ENAD as substrate at 25 uM preincubated for 20 mins followed by ENAD addition and measured after 1 hr relative to control
T1 sequence (whole entry): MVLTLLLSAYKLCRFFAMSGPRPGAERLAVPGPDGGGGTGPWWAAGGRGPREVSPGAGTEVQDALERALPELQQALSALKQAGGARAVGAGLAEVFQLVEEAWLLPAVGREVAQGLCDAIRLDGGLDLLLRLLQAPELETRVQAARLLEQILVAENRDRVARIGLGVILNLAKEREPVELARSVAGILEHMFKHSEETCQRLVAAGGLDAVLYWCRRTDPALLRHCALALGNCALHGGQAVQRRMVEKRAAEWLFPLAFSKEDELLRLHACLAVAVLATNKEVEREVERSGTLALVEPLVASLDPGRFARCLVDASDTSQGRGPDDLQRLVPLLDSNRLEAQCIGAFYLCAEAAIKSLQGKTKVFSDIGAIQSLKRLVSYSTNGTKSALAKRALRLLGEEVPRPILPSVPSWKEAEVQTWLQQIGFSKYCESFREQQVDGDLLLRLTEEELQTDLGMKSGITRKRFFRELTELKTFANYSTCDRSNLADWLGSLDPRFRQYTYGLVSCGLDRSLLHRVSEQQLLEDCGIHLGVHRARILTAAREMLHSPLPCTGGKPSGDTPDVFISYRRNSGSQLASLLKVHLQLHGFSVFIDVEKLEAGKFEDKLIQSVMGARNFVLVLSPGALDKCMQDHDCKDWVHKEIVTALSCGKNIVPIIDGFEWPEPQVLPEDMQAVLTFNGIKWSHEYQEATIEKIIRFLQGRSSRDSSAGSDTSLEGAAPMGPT

NAD(+) hydrolase SARM1 [2] = biological target: T2, NAD(+) hydrolase SARM1 (Homo sapiens, UniProt Q6SZW1); assay: Inhibition of recombinant human SARM1 TIR domain (561 to 724 residues) expressed in Escherichia coli C43 (DE3) cells lysates using ENAD as substrate preincubated for 20 mins followed by ENAD addition and measured at 15 sec interval for 15 mins
T2 sequence (Q6SZW1 whole entry): T1 sequence (whole entry)

NAD(+) hydrolase SARM1 [3] = biological target: T2, NAD(+) hydrolase SARM1; assay: Noncompetitive inhibition of recombinant human SARM1 TIR domain (561 to 724 residues) expressed in Escherichia coli C43 (DE3) cells lysates assessed as EADPR formation using ENAD as substrate preincubated for 20 mins followed by ENAD addition and measured at 15 sec interval for 1 hr
NAD(+) hydrolase SARM1 [4] = biological target: T2, NAD(+) hydrolase SARM1; assay: Competitive inhibition of recombinant human SARM1 TIR domain (561 to 724 residues) expressed in Escherichia coli C43 (DE3) cells lysates assessed as EADPR formation using ENAD as substrate preincubated for 20 mins followed by ENAD addition and measured at 15 sec interval for 1 hr

## C[C@H]1c2cccc(O)c2C(=O)C2=C(O)[C@]3(O)C(=O)C(C(N)=O)=C(O)[C@@H](N(C)C)[C@@H]3[C@@H](O)[C@@H]21
[1]
  inhibition: 26%

## NC(=O)N/N=C/c1ccc([N+](=O)[O-])o1 [NITROFURAZONE]
[1]
  inhibition: 27%
NAD(+) hydrolase SARM1 [2]
  IC50: 90 µM
NAD(+) hydrolase SARM1 [3]
  Ki: 120 µM

## Nc1ccc(/N=N/c2ccccc2)c(N)n1 [PHENAZOPYRIDINE HYDROCHLORIDE]
[1]
  inhibition: 44%
NAD(+) hydrolase SARM1 [4]
  Ki: 70 µM
